The IC50 is the concentration needed to halve the response being measured.

Data set [1] in a line: metabolite profiling in pooled urine (radioprofiling, LC‐MS). The conditions noted are these: pooled urine. It counts as in vivo, human. The method, then:
Total radioactivity concentrations of [^14C]‐pamiparib in whole blood, plasma, urine, and feces were determined by liquid scintillation counting (LSC). Radioactivity in each sample was measured for 5 minutes using a Packard Tri‐Carb liquid scintillation counter model 2100TR, 2900TR, or 3100TR (Canberra Packard, Pangbourne, Berks, Australia) with the facilities for computing quench‐corrected disintegrations per minute. Metabolite identification in plasma, urine, and feces was conducted by LC‐MS. Quantitation of the metabolites present in plasma, urine, and feces was based on the profiles of radioactivity. The limit of quantitation for radioactivity in plasma, urine, and feces was set at 1% of each chromatographic analysis (run) and 10 counts per minute (cpm) peak height; therefore, radioactive peaks that were <1% of the total run or <10 cpm peak height were reported as not detected. In addition, pamiparib and standards were reported, regardless of the percentage of run or peak height.
Each aliquot of urine (about 1 mL, weighed) was added directly to liquid scintillant prior to LSC. For metabolite profiling, urine samples collected 0‐4, 4‐8, 8‐12, 12‐24, 24‐48, 48‐72, and 72‐96 hours postdose were pooled by individual patient to generate 0‐ to 96‐hour pooled samples including 0.2% of each sample by weight. The radioactivity in each pooled sample was determined by LSC. The total amount of urine collected was factored into the recovery calculation. […] Pooled urine samples were analyzed by LC‐MS, with eluent fractions collected at 10‐second intervals into 96‐well plates containing solid scintillant. Radioactivity in each well was determined using TopCount analysis, and radiochemical profiles were generated based on radioactivity counts.
Metabolic profiling was performed on plasma, urine, and feces samples using LC‐MS. Shimadzu/Nexera LC‐30AD pumps and Shimadzu/Prominence DGU‐20A5R degasser were used with Shimadzu/Prominence controller CBM‐20A. The high‐pressure liquid chromatograph (HPLC) was equipped with an autoinjector (Shimadzu/Nexera SIL‐30ACMP) set at 10°C and a fraction collector (Leap Technologies PAL HTC‐xt) set at 15°C. Thermo Fisher Scientific Q Exactive was the mass spectrometer system.

Data set [2] has as its target T1, CYP2C8 (Homo sapiens, UniProt P10632).
T1 construct: tissue Corning (Woburn, New York); host or cells: pooled human liver microsomes
T1 sequence (P10632 1-490): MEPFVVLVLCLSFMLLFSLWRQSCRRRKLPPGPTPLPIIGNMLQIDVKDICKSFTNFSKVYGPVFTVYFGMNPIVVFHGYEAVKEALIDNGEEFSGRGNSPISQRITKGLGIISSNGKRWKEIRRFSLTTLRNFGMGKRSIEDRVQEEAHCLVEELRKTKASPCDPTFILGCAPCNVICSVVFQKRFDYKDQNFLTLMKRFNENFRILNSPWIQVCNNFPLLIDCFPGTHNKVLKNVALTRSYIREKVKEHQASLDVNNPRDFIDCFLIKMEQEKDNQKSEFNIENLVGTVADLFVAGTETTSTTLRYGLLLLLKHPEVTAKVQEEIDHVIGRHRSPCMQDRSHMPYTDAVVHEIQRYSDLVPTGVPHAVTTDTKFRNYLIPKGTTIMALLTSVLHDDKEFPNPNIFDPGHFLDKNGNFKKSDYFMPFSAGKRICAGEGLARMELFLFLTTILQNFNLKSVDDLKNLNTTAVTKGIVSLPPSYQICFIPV
In words: CYP450 phenotyping in HLMs with CYP2C8 inhibitor montelukast. To be noted: 90‐minute HLM incubation with CYP2C8 inhibitor montelukast (16 μM). It counts as in vitro ADME. Here is the method: (§1) Metabolic stability in human liver microsomes (HLMs) and cytochrome P450 (CYP450) phenotyping assays were conducted in 3D BioOptima (Suzhou, China) using validated methodology, [13] to determine the intrinsic clearance and enzymes responsible for metabolism of pamiparib. HLMs for microsome stability was from BD Biosciences (Woburn, New York). For phenotyping, HLMs and recombinant P450 (rCYP) were from Corning (Woburn, New York). Pamiparib (1 μM) was incubated with pooled HLM (0.5 mg/mL), NADPH (1 mM), and MgCl2 (3 mM) terminated at 0, 5, 15, 30, 60, and 90 minutes. The intrinsic clearance was calculated as 0.693/(t1/2 × HLM concentration), where t1/2 is the half‐life of pamiparib determined in HLMs. For phenotyping in HLMs, pamiparib (1 μM) was incubated in the absence or presence of isoform‐selective inhibitors: 0.2 μM α‐naphthoflavone for CYP1A2, 2 μM clopidogrel for CYP2B6, 16 μM montelukast for CYP2C8, 10 μM sulfaphenazole for CYP2C9, 30 μM nootkatone for CYP2C19, 2 μM quinidine for CYP2D6, and 1 μM ketoconazole for CYP3A. The following isoform‐selective probe substrates served as positive controls: 40 μM phenacetin for CYP1A2, 100 μM bupropion for CYP2B6, 2 μM amodiaquine for CYP2C8, 5 μM diclofenac for CYP2C9, 40 μM S‐mephenytoin for CYP2C19, 5 μM dextromethorphan for CYP2D6, and 2 μM midazolam for CYP3A4. […] Pamiparib, M1, and M2 were analyzed by LC‐MS/MS.

Data set [3] relates to CYP1A2, CYP2B6, CYP2C9, CYP2C19. In words: CYP450 phenotyping in HLMs with all other CYP inhibitors. It counts as in vitro ADME, human. The conditions noted are these: HLM incubation. The method, then: as §1
For data set [4], the system named is PARP2. Further details: method as in PMID 33264017. To be noted: read-out: PARP2 inhibition IC50; cited from earlier work.

Consider `C[C@]12CCCN1CC1=NNC(=O)c3cc(F)cc4[nH]c2c1c34` [Pamiparib], for which, in data set [1], the “dose quantified in urine” value is on record as 52.5 % of the dose. In addition, the pamiparib remaining in data set [2] was found to be 82.9%. The “effect of all other CYP inhibitors on pamiparib metabolism” value in data set [3] is given as “nearly no effect”. Further, in data set [4], the IC50 was 0.9 nM.

The values are drawn from paper PMC8453745, “Human Mass Balance and Metabolite Profiling of [^14C]‐Pamiparib, a Poly (ADP‐Ribose) Polymerase Inhibitor, in Patients With Advanced Cancer” (Clinical Pharmacology in Drug Development, 2021).
